≈ marks a conversion by molar mass, not a printed value. Calls of active or inactive are those of the source. No cut-off for these calls is given here.
Columns and labels:
Assay type in all cases: functional
Pseudomonas aeruginosa [1] = assay: Antibacterial activity against Pseudomonas aeruginosa after 18 to 24 hrs by disc diffusion assay
Staphylococcus aureus [2] = assay: Antibacterial activity against oxacillin-resistant Staphylococcus aureus after 18 to 24 hrs by disc diffusion assay
[3] = tested on: Staphylococcus haemolyticus; assay: Antibacterial activity against oxacillin-resistant Staphylococcus haemolyticus after 18 to 24 hrs by disc diffusion assay
Staphylococcus aureus [4] = assay: Antibacterial activity against Staphylococcus aureus after 18 to 24 hrs by disc diffusion assay
Staphylococcus aureus [5] = assay: Antibacterial activity against methicillin-resistant Staphylococcus aureus after 18 to 24 hrs by disc diffusion assay
Klebsiella pneumoniae [6] = assay: Antibacterial activity against Klebsiella pneumoniae after 18 to 24 hrs by disc diffusion assay
[7] = tested on: Staphylococcus epidermidis; assay: Antibacterial activity against oxacillin-resistant Staphylococcus epidermidis after 18 to 24 hrs by disc diffusion assay
Staphylococcus aureus [8] = assay: Antibacterial activity against Staphylococcus aureus ATCC 25923 after 18 to 24 hrs by disc diffusion assay
Staphylococcus aureus [9] = assay: Antibacterial activity against methicillin-resistant Staphylococcus aureus after 18 to 24 hrs by broth macrodilution method
[10] = tested on: Staphylococcus haemolyticus; assay: Antibacterial activity against oxacillin-resistant Staphylococcus haemolyticus after 18 to 24 hrs by broth macrodilution method
Pseudomonas aeruginosa [11] = assay: Antibacterial activity against Pseudomonas aeruginosa after 18 to 24 hrs by broth macrodilution method
[12] = tested on: Staphylococcus epidermidis; assay: Antibacterial activity against oxacillin-resistant Staphylococcus epidermidis after 18 to 24 hrs by broth macrodilution method
Staphylococcus aureus [13] = assay: Antibacterial activity against oxacillin-resistant Staphylococcus aureus after 18 to 24 hrs by broth macrodilution method
Klebsiella pneumoniae [14] = assay: Antibacterial activity against Klebsiella pneumoniae after 18 to 24 hrs by broth macrodilution method
Staphylococcus aureus [15] = assay: Antibacterial activity against Staphylococcus aureus after 18 to 24 hrs by broth macrodilution method
Staphylococcus aureus [16] = assay: Antibacterial activity against Staphylococcus aureus ATCC 25923 after 18 to 24 hrs by broth macrodilution method

SMILES | inhibition (Pseudomonas aeruginosa [1]) | inhibition (Staphylococcus aureus [2]) | inhibition [3] | inhibition (Staphylococcus aureus [4]) | inhibition (Staphylococcus aureus [5]) | inhibition (Klebsiella pneumoniae [6]) | inhibition [7] | inhibition (Staphylococcus aureus [8]) | other results
O=C1C=C(NCOCc2ccccc2)C(=O)c2ccccc21 | inactive | inactive | inactive | inactive | inactive | inactive | inactive | inactive | –
C#CCOCNC1=CC(=O)c2ccccc2C1=O | – | – | – | – | – | – | – | – | diameter of the inhibition zone (DIZ) (Pseudomonas aeruginosa [1]): 18 mm; diameter of the inhibition zone (DIZ) (Staphylococcus aureus [2]): 12 mm; MIC (Staphylococcus aureus [9]): 64 µg/mL (≈ 265 µM); MIC [10]: 32 µg/mL (≈ 133 µM); diameter of the inhibition zone (DIZ) [3]: 18 mm; MIC (Pseudomonas aeruginosa [11]): 16 µg/mL (≈ 66.3 µM); diameter of the inhibition zone (DIZ) (Staphylococcus aureus [4]): 20 mm; diameter of the inhibition zone (DIZ) (Staphylococcus aureus [5]): 16 mm; MIC [12]: 16 µg/mL (≈ 66.3 µM); diameter of the inhibition zone (DIZ) (Klebsiella pneumoniae [6]): 0 mm; diameter of the inhibition zone (DIZ) [7]: 10 mm; MIC (Staphylococcus aureus [13]): 256 µg/mL (≈ 1060 µM); MIC (Klebsiella pneumoniae [14]): ≥ 256 µg/mL; diameter of the inhibition zone (DIZ) (Staphylococcus aureus [8]): 16 mm; MIC (Staphylococcus aureus [15]): 32 µg/mL (≈ 133 µM); MIC (Staphylococcus aureus [16]): 32 µg/mL (≈ 133 µM)
Cc1ccc(SCNC2=CC(=O)c3ccccc3C2=O)cc1 | inactive | inactive | inactive | inactive | inactive | inactive | inactive | inactive | –
COCNC1=CC(=O)c2ccccc2C1=O | – | – | – | – | – | – | – | – | diameter of the inhibition zone (DIZ) (Pseudomonas aeruginosa [1]): 0 mm; diameter of the inhibition zone (DIZ) (Staphylococcus aureus [2]): 18 mm; MIC (Staphylococcus aureus [9]): 16 µg/mL (≈ 73.7 µM); MIC [10]: 16 µg/mL (≈ 73.7 µM); diameter of the inhibition zone (DIZ) [3]: 20 mm; MIC (Pseudomonas aeruginosa [11]): ≥ 256 µg/mL; diameter of the inhibition zone (DIZ) (Staphylococcus aureus [4]): 24 mm; diameter of the inhibition zone (DIZ) (Staphylococcus aureus [5]): 16 mm; MIC [12]: 8 µg/mL (≈ 36.8 µM); diameter of the inhibition zone (DIZ) (Klebsiella pneumoniae [6]): 17 mm; diameter of the inhibition zone (DIZ) [7]: 14 mm; MIC (Staphylococcus aureus [13]): 16 µg/mL (≈ 73.7 µM); MIC (Klebsiella pneumoniae [14]): 256 µg/mL (≈ 1180 µM); diameter of the inhibition zone (DIZ) (Staphylococcus aureus [8]): 17 mm; MIC (Staphylococcus aureus [15]): 16 µg/mL (≈ 73.7 µM); MIC (Staphylococcus aureus [16]): 16 µg/mL (≈ 73.7 µM)
CCOCNC1=CC(=O)c2ccccc2C1=O | – | – | – | – | – | – | – | – | diameter of the inhibition zone (DIZ) (Pseudomonas aeruginosa [1]): 14 mm; diameter of the inhibition zone (DIZ) (Staphylococcus aureus [2]): 17 mm; MIC (Staphylococcus aureus [9]): 32 µg/mL (≈ 138 µM); MIC [10]: 64 µg/mL (≈ 277 µM); diameter of the inhibition zone (DIZ) [3]: 16 mm; MIC (Pseudomonas aeruginosa [11]): 128 µg/mL (≈ 554 µM); diameter of the inhibition zone (DIZ) (Staphylococcus aureus [4]): 18 mm; diameter of the inhibition zone (DIZ) (Staphylococcus aureus [5]): 14 mm; MIC [12]: 16 µg/mL (≈ 69.2 µM); diameter of the inhibition zone (DIZ) (Klebsiella pneumoniae [6]): 0 mm; diameter of the inhibition zone (DIZ) [7]: 10 mm; MIC (Staphylococcus aureus [13]): 32 µg/mL (≈ 138 µM); MIC (Klebsiella pneumoniae [14]): ≥ 256 µg/mL; diameter of the inhibition zone (DIZ) (Staphylococcus aureus [8]): 15 mm; MIC (Staphylococcus aureus [15]): 4 µg/mL (≈ 17.3 µM); MIC (Staphylococcus aureus [16]): 8 µg/mL (≈ 34.6 µM)
O=C1C=C(NCSc2ccccc2)C(=O)c2ccccc21 | inactive | inactive | inactive | inactive | inactive | inactive | inactive | inactive | –
CC(C)(C)OCNC1=CC(=O)c2ccccc2C1=O | inactive | inactive | inactive | inactive | inactive | inactive | inactive | inactive | –
CCCSCNC1=CC(=O)c2ccccc2C1=O | inactive | inactive | inactive | inactive | inactive | inactive | inactive | inactive | –
CSc1ccc(SCNC2=CC(=O)c3ccccc3C2=O)cc1 | inactive | inactive | inactive | inactive | inactive | inactive | inactive | inactive | –
COc1ccc(SCNC2=CC(=O)c3ccccc3C2=O)cc1 | inactive | inactive | inactive | inactive | inactive | inactive | inactive | inactive | –
O=C(O)c1cn(C2CC2)c2cc(N3CCNCC3)c(F)cc2c1=O [CIPROFLOXACIN] | – | – | – | – | – | – | – | – | diameter of the inhibition zone (DIZ) (Pseudomonas aeruginosa [1]): 22 mm; MIC (Pseudomonas aeruginosa [11]): 1 µg/mL (≈ 3.02 µM); diameter of the inhibition zone (DIZ) (Klebsiella pneumoniae [6]): 22 mm; MIC (Klebsiella pneumoniae [14]): 1 µg/mL (≈ 3.02 µM)
Cc1ccccc1SCNC1=CC(=O)c2ccccc2C1=O | inactive | inactive | inactive | inactive | inactive | inactive | inactive | inactive | –
CC1=C(NCSc2ccccc2)C(=O)c2ccccc2C1=O | inactive | inactive | inactive | inactive | inactive | inactive | inactive | inactive | –
CC(C)OCNC1=CC(=O)c2ccccc2C1=O | inactive | inactive | inactive | inactive | inactive | inactive | inactive | inactive | –
CN[C@H](CC(C)C)C(=O)N[C@H]1C(=O)N[C@@H](CC(N)=O)C(=O)N[C@H]2C(=O)N[C@H]3C(=O)N[C@H](C(=O)N[C@H](C(=O)O)c4cc(O)cc(O)c4-c4cc3ccc4O)[C@H](O)c3ccc(c(Cl)c3)Oc3cc2cc(c3O[C@@H]2O[C@H](CO)[C@@H](O)[C@H](O)[C@H]2O[C@H]2C[C@](C)(N)[C@H](O)[C@H](C)O2)Oc2ccc(cc2Cl)[C@H]1O [VANCOMYCIN] | – | – | – | – | – | – | – | – | diameter of the inhibition zone (DIZ) (Staphylococcus aureus [2]): 16 mm; MIC [10]: 2 µg/mL (≈ 1.38 µM); diameter of the inhibition zone (DIZ) [3]: 16 mm; diameter of the inhibition zone (DIZ) (Staphylococcus aureus [4]): 16 mm; diameter of the inhibition zone (DIZ) (Staphylococcus aureus [5]): 16 mm; diameter of the inhibition zone (DIZ) [7]: 16 mm; diameter of the inhibition zone (DIZ) (Staphylococcus aureus [8]): 16 mm
O=C1C=C(NCSc2ccc(F)cc2)C(=O)c2ccccc21 | inactive | inactive | inactive | inactive | inactive | inactive | inactive | inactive | –
O=C1C=C(NCOCc2cn(-c3ccccc3)nn2)C(=O)c2ccccc21 | inactive | inactive | inactive | inactive | inactive | inactive | inactive | inactive | –
